Experimental data: patent US20230085307A1, “PYRIDAZINONE COMPOUND AND HERBICIDE” (NISSAN CHEMICAL CORPORATION, priority 2019, published 2023)

Experiments:
late watergrass [1] = assay: Test Example 1: herbicidal activity, application before weed generation under submerged conditions (Table 16, symbol A); assay type: in vivo, late watergrass (Echinochloa oryzicola); details: for Herbicidal effect on A: late watergrass (grade 0-5): 320 g/ha applied herbicide
How it was run: (§1)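 Emulsion formulation, water-diluted to set dose, was put onto the flooded surface (4 cm depth, alluvial soil) the same day weeds were sown and 2.5-leaf rice transplanted. After 3 weeks at 25-30 °C under glass, each species was rated 0 (≤5% kill) to 5 (≥90% kill).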

Japanese bulrush [2] = assay: Test Example 1: herbicidal activity, application before weed generation under submerged conditions (Table 16, symbol B); assay type: in vivo, Japanese bulrush (Schoenoplectus juncoides); details: for Herbicidal effect on B: Japanese bulrush (grade 0-5): 320 g/ha applied herbicide
How it was run: as §1

oval-leafed pondweed [3] = assay: Test Example 1: herbicidal activity, application before weed generation under submerged conditions (Table 16, symbol C); assay type: in vivo, oval-leafed pondweed (Monochoria vaginalis); details: for Herbicidal effect on C: oval-leafed pondweed (grade 0-5): 320 g/ha applied herbicide
How it was run: as §1

late watergrass [4] = assay: Test Example 2: herbicidal activity, application during weed generation under submerged conditions (Table 17, symbol A); assay type: in vivo, late watergrass (Echinochloa oryzicola); details: AAH 320 g/ha; application during weed generation, submerged conditions
How it was run: (§2)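 Mixed weed seedlings in alluvial soil under a 4 cm water layer, greenhouse-grown at 25–30° C. Compound given as a diluted emulsion into the floodwater at the 1–2 leaf stage; response graded after three weeks.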

Japanese bulrush [5] = assay: Test Example 2: herbicidal activity, application during weed generation under submerged conditions (Table 17, symbol B); assay type: in vivo, Japanese bulrush (Schoenoplectus juncoides); details: AAH 320 g/ha; application during weed generation, submerged conditions
How it was run: as §2

oval-leafed pondweed [6] = assay: Test Example 2: herbicidal activity, application during weed generation under submerged conditions (Table 17, symbol C); assay type: in vivo, oval-leafed pondweed (Monochoria vaginalis); details: AAH 320 g/ha; application during weed generation, submerged conditions
How it was run: as §2

barnyard grass [7] = assay: Test Example 3: herbicidal effect by foliage application, Wagner pot (Table 18, symbol H); assay type: in vivo, barnyard grass (Echinochloa crus-galli); details: for herbicidal effect on H: barnyard grass: amount of applied herbicide 320 g/ha
How it was run: (§3)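 Plants were sown in alluvial soil held under 0.1–0.5 cm standing water and grown 14 days in a greenhouse at 25–30 °C. An emulsifiable formulation, water-diluted to the set dose, was then sprayed onto the foliage, and effects were scored three weeks later using previously defined criteria.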

Chinese sprangletop = assay: Test Example 3: herbicidal effect by foliage application, Wagner pot (Table 18, symbol D); assay type: in vivo, chinese sprangletop (Leptochloa chinensis); details: for herbicidal effect on D: Chinese sprangletop: amount of applied herbicide 320 g/ha
How it was run: as §3

rice flat sedge = assay: Test Example 3: herbicidal effect by foliage application, Wagner pot (Table 18, symbol E); assay type: in vivo, rice flat sedge (Cyperus iria); details: for herbicidal effect on E: rice flat sedge: amount of applied herbicide 320 g/ha
How it was run: as §3

southern crabgrass = assay: Test Example 5: herbicidal effect by foliage application, plastic box (Table 20, symbol F); assay type: in vivo, southern crabgrass (Digitaria ciliaris); details: foliage application, 320 g/ha, three weeks after application
How it was run: (§4)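 Plants sown in sterilized diluvial soil and grown 14 days in a greenhouse at 25° C to 30° C, then sprayed on the foliage with the compound's emulsion diluted in water to a predetermined herbicide amount. Injury to weeds and crops scored three weeks after application on a visual rating scale.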

green foxtail = assay: Test Example 5: herbicidal effect by foliage application, plastic box (Table 20, symbol G); assay type: in vivo, green foxtail (Setaria viridis); details: foliage application, 320 g/ha, three weeks after application
How it was run: as §4

barnyard grass [8] = assay: Test Example 5: herbicidal effect by foliage application, plastic box (Table 20, symbol H); assay type: in vivo, barnyard grass (Echinochloa crus-galli); details: foliage application, 320 g/ha, three weeks after application
How it was run: as §4

wild oat = assay: Test Example 5: herbicidal effect by foliage application, plastic box (Table 20, symbol I); assay type: in vivo, wild oat (Avena fatua); details: foliage application, 320 g/ha, three weeks after application
How it was run: as §4

blackgrass = assay: Test Example 5: herbicidal effect by foliage application, plastic box (Table 20, symbol J); assay type: in vivo, blackgrass (Alopecurus myosuroides); details: foliage application, 320 g/ha, three weeks after application
How it was run: as §4

Italian ryegrass = assay: Test Example 5: herbicidal effect by foliage application, plastic box (Table 20, symbol K); assay type: in vivo, Italian ryegrass (Lolium multiflorum); details: foliage application, 320 g/ha, three weeks after application
How it was run: as §4

windgrass = assay: Test Example 5: herbicidal effect by foliage application, plastic box (Table 20, symbol L); assay type: in vivo, windgrass (Apera spica-venti); details: foliage application, 320 g/ha, three weeks after application
How it was run: as §4

velvetleaf = assay: Test Example 5: herbicidal effect by foliage application, plastic box (Table 20, symbol M); assay type: in vivo, velvetleaf (Abutilon theophrasti); details: foliage application, 320 g/ha, three weeks after application
How it was run: as §4

lambsquarters = assay: Test Example 5: herbicidal effect by foliage application, plastic box (Table 20, symbol O); assay type: in vivo, lambsquarters (Chenopodium album); details: foliage application, 320 g/ha, three weeks after application
How it was run: as §4

persian speedwell = assay: Test Example 5: herbicidal effect by foliage application, plastic box (Table 20, symbol R); assay type: in vivo, Persian speedwell (Veronica persica); details: foliage application, 320 g/ha, three weeks after application
How it was run: as §4

[9] = amount of applied herbicide 320 g/ha

## Cc1nn(C)c(=O)c(-c2c(-c3ccc(C[S+](C)[O-])cc3)sc3ccc(F)cc23)c1O (stereo not shown) [2-332]
Late watergrass [1]
  Herbicidal effect on A: late watergrass (grade 0-5): 2 (Herbicidal rate of 20% or more and less than 40%)
Japanese bulrush [2]
  Herbicidal effect on B: Japanese bulrush (grade 0-5): 0 (Herbicidal rate of 5% or less (almost no effect))
oval-leafed pondweed [3]
  Herbicidal effect on C: oval-leafed pondweed (grade 0-5): 0 (Herbicidal rate of 5% or less (almost no effect))
Late watergrass [4]
  herbicidal effect rating, A: late watergrass: 3 (Herbicidal rate of 40% or more and less than 70%)
Japanese bulrush [5]
  herbicidal effect rating, B: Japanese bulrush: 0 (Herbicidal rate of 5% or less (almost no effect))
oval-leafed pondweed [6]
  herbicidal effect rating, C: oval-leafed pondweed: 0 (Herbicidal rate of 5% or less (almost no effect))
Barnyard grass [7]
  herbicidal effect on H: barnyard grass: 5 (Herbicidal rate of 90% or more (almost completely withered))
Chinese sprangletop
  herbicidal effect on D: Chinese sprangletop: 3 (Herbicidal rate of 40% or more and less than 70%)
Rice flat sedge
  herbicidal effect on E: rice flat sedge: 3 (Herbicidal rate of 40% or more and less than 70%)

## CCCC(=O)Oc1c(C)nn(C)c(=O)c1-c1c(-c2ccc(OC)c(Cl)c2)sc2ccc(F)cc12 [2-371]
Late watergrass [1]
  Herbicidal effect on A: late watergrass (grade 0-5): 3 (Herbicidal rate of 40% or more and less than 70%)
Japanese bulrush [2]
  Herbicidal effect on B: Japanese bulrush (grade 0-5): 3 (Herbicidal rate of 40% or more and less than 70%)
oval-leafed pondweed [3]
  Herbicidal effect on C: oval-leafed pondweed (grade 0-5): 4 (Herbicidal rate of 70% or more and less than 90%)
Late watergrass [4]
  herbicidal effect rating, A: late watergrass: 0 (Herbicidal rate of 5% or less (almost no effect))
Japanese bulrush [5]
  herbicidal effect rating, B: Japanese bulrush: 3 (Herbicidal rate of 40% or more and less than 70%)
oval-leafed pondweed [6]
  herbicidal effect rating, C: oval-leafed pondweed: 4 (Herbicidal rate of 70% or more and less than 90%)
Barnyard grass [7]
  herbicidal effect on H: barnyard grass: 4 (Herbicidal rate of 70% or more and less than 90%)
Chinese sprangletop
  herbicidal effect on D: Chinese sprangletop: 4 (Herbicidal rate of 70% or more and less than 90%)
Rice flat sedge
  herbicidal effect on E: rice flat sedge: 4 (Herbicidal rate of 70% or more and less than 90%)

## CCCC(=O)Oc1c(C)nn(C)c(=O)c1-c1c(-c2ccccc2OC)sc2cc(C)c(C)cc12 [5-091]
Late watergrass [1]; [9]
  Herbicidal effect, A: late watergrass: 3 (Herbicidal rate of 40% or more and less than 70%)
Japanese bulrush [2]; [9]
  Herbicidal effect, B: Japanese bulrush: 3 (Herbicidal rate of 40% or more and less than 70%)
oval-leafed pondweed [3]; [9]
  Herbicidal effect, C: oval-leafed pondweed: 3 (Herbicidal rate of 40% or more and less than 70%)
Late watergrass [4]
  herbicidal effect rating, A: late watergrass: 3 (Herbicidal rate of 40% or more and less than 70%)
Japanese bulrush [5]
  herbicidal effect rating, B: Japanese bulrush: 2 (Herbicidal rate of 20% or more and less than 40%)
oval-leafed pondweed [6]
  herbicidal effect rating, C: oval-leafed pondweed: 3 (Herbicidal rate of 40% or more and less than 70%)
Barnyard grass [7]; 320 g/ha
  herbicidal effect on barnyard grass (H): 4 (Herbicidal rate of 70% or more and less than 90%)
Chinese sprangletop; 320 g/ha
  herbicidal effect on Chinese sprangletop (D): 4 (Herbicidal rate of 70% or more and less than 90%)
Rice flat sedge; 320 g/ha
  herbicidal effect on rice flat sedge (E): 3 (Herbicidal rate of 40% or more and less than 70%)
Southern crabgrass
  herbicidal effect on southern crabgrass (F): 2 (Herbicidal rate of 20% or more and less than 40%)
Green foxtail
  herbicidal effect on green foxtail (G): 3 (Herbicidal rate of 40% or more and less than 70%)
Barnyard grass [8]
  herbicidal effect on barnyard grass (H): 3 (Herbicidal rate of 40% or more and less than 70%)
Wild oat
  herbicidal effect on wild oat (I): 0 (Herbicidal rate of 5% or less (almost no effect))
blackgrass
  herbicidal effect on blackgrass (J): 4 (Herbicidal rate of 70% or more and less than 90%)
Italian ryegrass
  herbicidal effect on Italian ryegrass (K): 4 (Herbicidal rate of 70% or more and less than 90%)
windgrass
  herbicidal effect on windgrass (L): 4 (Herbicidal rate of 70% or more and less than 90%)
velvetleaf
  herbicidal effect on velvetleaf (M): 4 (Herbicidal rate of 70% or more and less than 90%)
lambsquarters
  herbicidal effect on lambsquarters (O): 3 (Herbicidal rate of 40% or more and less than 70%)
Persian speedwell
  herbicidal effect on persian speedwell (R): 3 (Herbicidal rate of 40% or more and less than 70%)
